From patent US20060276400A1, “Modulation of cholesteryl ester transfer protein (CETP) activity” (priority 2005, published 2006)

How the values were obtained:
[1] = tested on: serum CETP activity; assay: Serum CETP activity (fluorescent cholesteryl ester transfer assay) in immunized human CETP transgenic mice; conditions: in vivo
[2] = tested on: serum HDL-cholesterol (HDLc); parameters: species or system human CETP transgenic mice; conditions: in vivo
[3] = tested on: human CETP; assay: ELISA anti-huCETP antibody titers in sera of immunized human CETP transgenic mice; conditions: in vivo; for average anti-huCETP titer: sc
[4] = tested on: endogenous serum CETP activity; assay: Change in endogenous serum CETP activity in rabbits immunized with full-length human CETP; conditions: week 12 post-injection vs week -1 pre-injection, 0.2 mg huCETP in CFA, boosters in IFA; for increase in CETP activity following vaccination: Rabbit #1

| Molecule | effect on serum CETP activity (in words) [1] | change in serum HDLc levels in contrast to control group (in words) [2] | average anti-huCETP titer [3] [OD] | anti-huCETP titer lower than those of the CETi-1 and CETi-2 groups [3] | increase in CETP activity following vaccination [4] | increase in CETP activity following vaccination ([4]; listed as whole human CETP) [%] | decrease in CETP activity following vaccination ([4]; Rabbit #11, listed as whole human CETP) [%] |
| --- | --- | --- | --- | --- | --- | --- | --- |
| CQYIKANSKFIGITEFGFPEHLLVDFLQSLS [CETi-1, reference compound] | appeared to elevate CETP activity | reduction | ~0.750 | – | – | – | – |
| CSKGTSHEAGIVCRITKPALLQYIKANSKFIGITE [CETi-2] | no effect on average | reduction | ~0.750 | – | – | – | – |
| SKGTSHEAGIVCRITKPALLQYIKANSKFIGITE [CETi-2.1] | – | – | – | approx. 30% | – | – | – |
| human CETP: full-length human CETP (SEQ ID NO:7) purified from conditioned media of a huCETP transformed CHO cell line (protein, Human; PEPTIDE (1)..(476) Amino aid sequence of full-length mature human CETP protein) CSKGTSHEAGIVCRITKPALLVLNHETAKVIQTAFQRASYPDITGEKAMMLLGQVKYGLHNIQISHLSIASSQVELVEAKSIDVSIQNVSVVFKGTLKYGYTTAWWLGIDQSIDFEIDSAIDLQINTQLTCDSGRVRTDAPDCYLSFHKLLLHLQGEREPGWIKQLFTNFISFTLKLVLKGQICKEINVISNIMADFVQTRAASILSDGDIGVDISLTGDPVITASYLESHHKGHFIYKNVSEDLPLPTFSPTLLGDSRMLYFWFSERVFHSLAKVAFQDGRLMLSLMGDEFKAVLETWGFNTNQEIFQEVVGGFPSQAQVTVHCLKMPKISCQNKGVVVNSSVMVKFLFPRPDQQHSVAYTFEEDIVTTVQASYSKKKLFLSLLDFQITPKTVSNLTESSSESIQSFLQSMITAVGIPEVMSRLEVVFTALMNSKGVSLFDIINPEIITRDGFLLLQMDFGFPEHLLVDFLQSLS | – | – | – | – | +85% | 85 | 77 |
